One assay concerns the target T1, V₂ receptor (Rattus norvegicus, UniProt Q00788).
T1 construct: Using rat kidney plasma membrane preparations; from tissue; host or cells: rat kidney plasma membranes
Put plainly: V₂ receptor binding assay ([³H]-Arg-vasopressin, rat kidney plasma membrane preparations). The following applies: 4°C for 3 hours. The method, boiled down: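 Rat kidney plasma membranes incubated with [³H]-vasopressin and test compound, then filtered on GF/F glass filters and bound radioactivity counted by liquid scintillation.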

The subject of another assay is SD rats. Put plainly: Anti-antidiuretic activity (effect on endogenous ADH), amount of urine. The class given is in vivo. The note with it: for ED (3-fold urine volume): Rattus norvegicus, iv, read-out: ED₃. The source says: […] During this measurement, the rats are allowed to take water and feed freely.
The amount of urine of control rats (solvent-treated group) is regarded as 100 %, and the results are expressed as ED₃ value, which is the dose of the test compound to be required to excrete the urine by three times than that of the control rats.

The target of another assay is T2, V₁ receptor (Rattus norvegicus, UniProt P30560).
T2 construct: Using rat liver plasma membrane preparations; from tissue; host or cells: rat liver plasma membranes
Put plainly: V₁ receptor binding assay ([³H]-Arg-vasopressin, rat liver plasma membrane preparations). The note with it: 37°C for 10 minutes. On the procedure: Using rat liver plasma membrane preparations prepared according to Ichihara's method [cf: Akira Ichihara, J. Bio. Chem., 258, 9283 (1983)], the plasma membrane (50000dpm, 2x10⁻¹⁰ M) of [³H]-Arg-vasopressin and a test compound (60 µg, 10⁻⁸-10⁻⁴ M) are incubated at 37°C for 10 minutes in 100 mM Tris-HCl buffer (pH: 8.0, 250 µl) containing 5 mM MgCl₂, 1 mM EDTA and 0.1 % BSA. After incubation, the mixture is filtered three times using the glass filter (GF/F) so as to separate the membrane preparation combined with vasopressin and then washed with the buffer (5 ml). This glass filter is taken out and mixed with liquid scintillation cocktail. The amount of [³H]-vasopressin combined with the membrane is measured by liquid scintillation counter and the rate of the inhibitory effect of the test compound is estimated according to the following equation. Rate of the inhibitory effect (%) = 100 -(C1 - B1)/(C0 - B1)X 100 [formula] C¹: The amount of [³H]-vasopressin combined with the membrane in the presence of the test compound (in prescribed amount). C⁰: The amount of [³H]-vasopressin combined with the membrane in the absence of the test compound. B¹: The amount of [³H]-vasopressin combined with the membrane in the presence of the excess amount of vasopressin (10⁻⁶ M).
The results are expressed as IC₅₀ values, which is the concentration of the test compound required to achieve the inhibitory effect in the rate of 50 %.

[1] abbreviates: administered into a caudal vein, urine collected for 2 hours, dose to excrete the urine by three times that of control rats, solvent dimethylformamide.

The structures appear in SMILES notation.

In general, IC50 refers to the concentration that inhibits the measured activity by half. A lower IC50 goes with inhibition by little substance.

T1 sequence (Q00788 whole entry): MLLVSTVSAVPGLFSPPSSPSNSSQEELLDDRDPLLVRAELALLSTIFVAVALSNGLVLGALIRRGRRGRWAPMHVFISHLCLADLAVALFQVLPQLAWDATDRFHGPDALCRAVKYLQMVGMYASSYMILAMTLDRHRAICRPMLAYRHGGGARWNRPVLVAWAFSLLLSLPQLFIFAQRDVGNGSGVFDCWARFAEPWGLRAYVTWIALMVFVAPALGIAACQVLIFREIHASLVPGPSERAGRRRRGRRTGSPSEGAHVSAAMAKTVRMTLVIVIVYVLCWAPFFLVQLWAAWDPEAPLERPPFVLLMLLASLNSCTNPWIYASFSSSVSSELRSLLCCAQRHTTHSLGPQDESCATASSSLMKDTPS
T2 sequence (P30560 whole entry): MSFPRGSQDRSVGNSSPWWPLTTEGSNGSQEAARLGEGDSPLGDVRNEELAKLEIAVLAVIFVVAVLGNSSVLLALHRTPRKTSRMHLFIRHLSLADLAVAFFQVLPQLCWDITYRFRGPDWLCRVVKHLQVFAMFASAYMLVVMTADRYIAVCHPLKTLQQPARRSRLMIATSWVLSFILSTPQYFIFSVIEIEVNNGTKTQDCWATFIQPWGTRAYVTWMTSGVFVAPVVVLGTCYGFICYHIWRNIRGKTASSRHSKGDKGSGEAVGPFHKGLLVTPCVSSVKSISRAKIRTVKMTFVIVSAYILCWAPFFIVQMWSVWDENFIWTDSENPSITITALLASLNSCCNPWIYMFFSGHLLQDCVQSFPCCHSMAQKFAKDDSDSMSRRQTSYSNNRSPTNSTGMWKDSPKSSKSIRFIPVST

Regarding `Cc1cccc(C(=O)Nc2ccc(C(=O)N3CCCc4ccccc43)cc2)c1C` [compound 6], the IC50 on V₂ receptor amounted to 76 nM. The ED (3-fold urine volume) with SD rats (setting [1]) was 10 mg/kg.

On to `Cc1cccc(C(=O)Nc2ccc(C(=O)N3CCCCc4ccccc43)cc2)c1C` [compound 33], for which the IC50 came to 92 nM on V₁ receptor and 7 nM on V₂ receptor. Moreover, in the assay on SD rats (setting [1]), the ED (3-fold urine volume) is 1.9 mg/kg.

Molecule `O=C(Nc1ccc(C(=O)N2CCCC(O)c3ccccc32)cc1)c1cc(Cl)cc(Cl)c1` (stereo not shown) [compound 178] returned an IC50 on V₂ receptor of 12 nM. The molecule further gave an ED₃ with SD rats (setting [1]) of 4.2 mg/kg.

Take `Cc1ccccc1C(=O)Nc1ccc(C(=O)N2CCCC(N(C)C)c3ccccc32)cc1` (stereo not shown) [compound 249]: the ED₃ in the assay on SD rats (as E3, but physiological saline solution used as solvent instead of dimethylformamide) was 0.4 ^*) mg/kg.

As to `Cc1ccccc1C(=O)Nc1ccc(C(=O)N2CCCC(OCC(=O)NCC(N)=O)c3ccccc32)cc1` (stereo not shown) [compound 285], the IC50 was 180 nM on V₁ receptor and 8 nM at V₂ receptor.

Consider `Cc1ccccc1C(=O)Nc1ccc(C(=O)N2CCCC(OCC(=O)N3CCS(=O)(=O)CC3)c3ccccc32)cc1` (stereo not shown) [compound 286], for which the IC50 stood at 400 nM at V₁ receptor and 19 nM on V₂ receptor.

`CNC1CCCN(C(=O)c2ccc(NC(=O)c3ccccc3C)cc2)c2ccc(Cl)cc21` (stereo not shown) [compound 287]: the IC50 on V₁ receptor was 64 nM; at V₂ receptor it was 7 nM.

With `CC(=O)N1CCN(C(=O)COC2CCCN(C(=O)c3ccc(NC(=O)c4ccccc4C)cc3)c3ccccc32)CC1` (stereo not shown) [compound 288], the IC50 on V₁ receptor was determined as 260 nM; on V₂ receptor, 15 nM.

Turning to `Cc1ccccc1C(=O)Nc1ccc(C(=O)N2CCCC(OCC(=O)NCc3ccncc3)c3ccccc32)cc1` (stereo not shown) [compound 290], the IC50 was found to be 210 nM at V₁ receptor and 21 nM at V₂ receptor.

With `Cc1ccccc1C(=O)Nc1ccc(C(=O)N2CCCC(OCC(=O)N(C)CCO)c3ccccc32)cc1` (stereo not shown) [compound 293], the IC50 at V₁ receptor was found to be 190 nM; at V₂ receptor, 65 nM.

As to `CN(C)c1ccccc1C(=O)Nc1ccc(C(=O)N2CCCC(N(C)C)c3ccccc32)cc1` (stereo not shown) [compound 298], the IC50 on V₁ receptor is 290 nM; on V₂ receptor, 100 nM.

`CNC1CCCN(C(=O)c2ccc(NC(=O)c3ccccc3Cl)cc2)c2ccc(Cl)cc21` (stereo not shown) [compound 302]: the IC50 at V₁ receptor is 71 nM; at V₂ receptor, 11 nM.

In the case of `Cc1ccccc1C(=O)Nc1ccc(C(=O)N2CCCC(N(C)C)c3cc(Cl)ccc32)cc1` (stereo not shown) [compound 303], the IC50 at V₁ receptor came out at 190 nM; on V₂ receptor it was 25 nM.

For `CN(C)C1CCCN(C(=O)c2ccc(NC(=O)c3ccccc3Cl)cc2)c2ccc(Cl)cc21` (stereo not shown) [compound 304], the results for the IC50 on V₁ receptor and at V₂ receptor were 210 nM and 24 nM, respectively.

As for `CCN(CC(=O)Nc1ccc(C(=O)N2CCCC(NC)c3cc(Cl)ccc32)cc1)c1ccccc1` (stereo not shown) [compound 307], the IC50 amounted to 24 nM on V₁ receptor and 10 nM at V₂ receptor.

As for `CCN(CC(=O)Nc1ccc(C(=O)N2CCCC(N(C)C)c3cc(Cl)ccc32)cc1)c1ccccc1` (stereo not shown) [compound 308], the IC50 is 110 nM at V₁ receptor and 23 nM on V₂ receptor.

Take `CN(C)C1CCCN(C(=O)c2ccc(NC(=O)c3ccccc3Br)cc2)c2ccccc21` (stereo not shown) [compound 309]: the results for the IC50 on V₁ receptor and at V₂ receptor were 430 nM and 15 nM, respectively.

For the molecule `Cc1ccccc1C(=O)Nc1ccc(C(=O)N2CCCC(NC3CC3)c3cc(Cl)ccc32)cc1` (stereo not shown) [compound 310], the IC50 at V₁ receptor came to 65 nM; at V₂ receptor, 8 nM.

As to `O=C(Nc1ccc(C(=O)N2CCCC(NC3CC3)c3cc(Cl)ccc32)cc1)c1ccccc1Cl` (stereo not shown) [compound 311], the results for the IC50 on V₁ receptor and at V₂ receptor were 78 nM and 13 nM, respectively.

With `CC(C)NCCCCOc1ccccc1C(=O)Nc1ccc(C(=O)N2CCCC(O)c3ccccc32)cc1` (stereo not shown) [compound 312], the half-inhibitory concentration (IC50) on V₁ receptor came out at 56 nM; at V₂ receptor it was 290 nM.

Regarding `CCN(CC(=O)Nc1ccc(C(=O)N2CCCC(OCC(=O)N(C)C)c3ccccc32)cc1)c1ccccc1` (stereo not shown) [compound 313], the IC50 came out at 32 nM at V₁ receptor and 12 nM on V₂ receptor.

For the molecule `CN(C)C1CCCN(C(=O)c2ccc(NC(=O)CNc3ccccc3Cl)cc2)c2ccccc21` (stereo not shown) [compound 315], the IC50 at V₁ receptor came out at 380 nM; on V₂ receptor, 25 nM.

`Cc1ccccc1NCC(=O)Nc1ccc(C(=O)N2CCCC(N(C)C)c3ccccc32)cc1` (stereo not shown) [compound 316]: the IC50 turned out to be 470 nM on V₁ receptor and 60 nM on V₂ receptor.

Regarding `CNC1CCCN(C(=O)c2ccc(NC(=O)c3ccccc3Cl)c(OC)c2)c2ccc(Cl)cc21` (stereo not shown) [compound 321], the IC50 amounted to 59 nM at V₁ receptor and 12 nM on V₂ receptor.

On to `COc1cc(C(=O)N2CCCC(NC3CC3)c3cc(Cl)ccc32)ccc1NC(=O)c1ccccc1Cl` (stereo not shown) [compound 322], for which the IC50 at V₁ receptor was 44 nM; at V₂ receptor it was 25 nM.

As to `CNC1CCCN(C(=O)c2ccc(NC(=O)c3ccccc3C)c(OC)c2)c2ccc(Cl)cc21` (stereo not shown) [compound 323], the IC50 at V₁ receptor turned out to be 64 nM; on V₂ receptor, 14 nM.
